Bridge positions count the residues as written; N and C are the ends. Square brackets hold non-standard residues; d marks the D form. Peptide text beside a SMILES is read from it. * marks the point of attachment. N(3-phenylpropyl)Gly = O=C(O)CNCCCc1ccccc1; Gly(NCH2CH2Ph) = O=C(O)CNCCc1ccccc1; Gly(N-2-aminoethyl) = NCCNCC(=O)O; Gly(N(CH2)3NH2) = NCCCNCC(=O)O; Gly(N-cPent) = O=C(O)CNC1CCCC1; Heptanoyl = CCCCCCC(=O)*; Nphe = O=C(O)CNCc1ccccc1; Octanoyl = CCCCCCCC(=O)*; Dab = NCC[C@H](N)C(=O)O; NPrGly = CCCNCC(=O)O
Tests used:
[1] = Dansyl-polymyxin (DsPMB) displacement assay; type: binding, Pseudomonas aeruginosa; details: 37 °C, 2.5 µM DsPMB, LPS 3 μg/mL, emission 485 nm; mean ± SD, n = 3
Experimental: 14. Dansyl-Polymyxin (DsPMB) Displacement Assay
Saturation determination. Dansyl-polymyxin (DsPMB) in water (1.5 mg/mL) and lyophilized lipopolysaccharides from P. aeruginosa were obtained from Merck. LPS were prepared as a 1 mg/mL stock solution in mQ water and stored at 4 °C. The fluorescence saturation of DsPMB with LPS was first determined, by titration (0.25 μM increments, up to 5 μM) of the DsPMB into a 3 μg/mL of LPS (10 mM Tris, 10 mM NaCl buffer, pH 7.4), at 37 °C. The fluorescence was recorded with a Jasco spectrofluorometer FP-8300, with the excitation at λex = 340 nm (5 nm slit width) and recorded from 420 to 650 nm. The fluorescence was recorded two minutes after each addition. Saturation was graphically determined, at a concentration of D sPMB ≈ 2.5 μM (λem = 485 nm). Each measurement was determined in triplicates.
Displacement assay. The displacement effect of the various peptides was determined by measuring the reduction of fluorescence intensity, at 37 °C. Initially, DsPMB (2.5 μM) was mixed with LPS (3 μg/mL) and let it react for 15 minutes before recording the fluorescence […]
intensity (at λem = 485 nm and λex = 340 nm). Then, the peptide was titrated (1 μM increments, up to 10 μM) into the DsPMB/LPS mixture, and the fluorescence was recorded two minutes after the compound addition. The decrease in fluorescence was interpreted as the displacement of DsPMB from the LPS due to competitive binding by the peptide.[12,13] Specific Fluorescence Enhancement
Figure S8. Fluorescence emission of dansyl-polymyxin (DsPMB) in presence of lipopolysaccharide (LPS) extracted from P. aeruginosa (3 µg/mL) in TRIS/NaCl buffer (10 mM, pH 7.4). The fluorophore was excited at 340 nm (5 nm slit width) and recorded from 420 to 650 nm. The data represent mean value from three measurement. Specific fluorescence represents the emission of DsPMB with the non-specific fluorescence (no LPS) deduced.

P. aeruginosa PAO1 = experiment: Transmission electron microscopy (TEM); type: cell-based, Pseudomonas aeruginosa; details: 10 × MIC, 12.5% MH, 2 h incubation at 37 °C, OD600 = 0.5
Experimental: Specific Fluorescence Enhacement
Concentration of Dansyl-PMB (μM)
Figure S9. Extracted data from the specific fluorescence enhancement data (Figure S8) from DsPMB at 485 nm. The plateau is reached at approximately 2.5 µM. Each data point represent mean ± SD, n =3.
15. Transmission Electron Microscopy (TEM)
Transmission electron microscopy was evaluated at a high cell density (10^8 CFU) and a concentration (10x MIC) that killed the bacteria, but not all of them. An overnight culture of P. aeruginosa PAO1 was regrown until exponential phase (1 mL, OD600 = 0.5) in 12.5% MH medium pH 7.4, treated with the compounds, in diluted MH medium (at pH 7.4) and incubated for 2 hours at 37 °C. Just before the samples were further prepared for the microscopy, surviving bacteria were quantified by plating 10-fold dilutions of samples in sterilized normal saline (NaCl 0.9 %) on LB agar plates. LB agar plates were incubated at 37 °C for 10 hours and the number of individual colonies was counted at each time-point, to monitor partial bacteria killing. The assay was performed in triplicates. Each bacteria sample was centrifuged at 12’000 rpm for 3 min and the supernatant was discarded. The samples were fixed overnight with 2.5% glutaraldehyde (Agar Scientific, Stansted, Essex, UK) in 0.15 M HEPES (Fluka, Buchs, Switzerland) with an osmolarity of 630 mOsm and adjusted to a pH of 7.44. […]

| Structure (SMILES) | Binding to lipopolysaccharide (dansyl-PMB fluorescence displacement) [1] | TEM pattern of treated P. aeruginosa cells (P. aeruginosa PAO1) |
| --- | --- | --- |
| CCCCCCCC(=O)N(CCc1ccccc1)CC(=O)N[C@@H](CCCCN)C(=O)N[C@@H](CC(N)=O)C(=O)N[C@H]1CCNC(=O)[C@H](CCCCN)NC(=O)CN(CCCN)C(=O)[C@H](CCCCN)NC(=O)CN(CCC)C(=O)[C@H](CCCCN)NC1=O [EB12] (Octanoyl-[Gly(NCH2CH2Ph)]KN[Dab]K[NPrGly]K[Gly(N(CH2)3NH2)]K; lactam 4-C) | to a similar extent as PMB2 itself | aggregation of intracellular contents |
| CCCCCCC(=O)N[C@H](C(=O)N(CCN)CC(=O)N(CCCc1ccccc1)CC(=O)N[C@H]1CCNC(=O)[C@H](CCCCN)NC(=O)CN(CCCN)C(=O)[C@H](CCCCN)NC(=O)CNC(=O)[C@H](CCCCN)NC1=O)C(C)C [EB13] (Heptanoyl-V[Gly(N-2-aminoethyl)][N(3-phenylpropyl)Gly][Dab]KGK[Gly(N(CH2)3NH2)]K; lactam 4-C) | to a similar extent as PMB2 itself | aggregation of intracellular contents |
| CCCCCCCC(=O)N[C@@H](CCCCN)C(=O)N(CC(=O)N[C@@H](CCCCN)C(=O)N[C@H]1CCNC(=O)[C@H](CCCCN)NC(=O)CN(C2CCCC2)C(=O)CN(CCN)C(=O)[C@H](CCCCN)NC(=O)[C@H](CC(N)=O)NC1=O)Cc1ccccc1 [EB21] (Octanoyl-K[Nphe]K[Dab]NK[Gly(N-2-aminoethyl)][Gly(N-cPent)]K; lactam 4-C) | to a similar extent as PMB2 itself |  |

From paper PMC12124432, “Antimicrobial Peptide‐Peptoid Macrocycles from the Polymyxin B2 Chemical Space” (Angewandte Chemie (International Ed. in English), 2025)
